# Columns and labels:
# Type in all cases: in vivo, rat
# [1] = system: MIA-induced osteoarthritis pain; assay: Monoiodoacetate-induced osteoarthritis (MIA-OA) pain model, compressive grip force
# Experimental: Under light isoflurane (2-3%) anesthesia, MIA (3 mg) was unilateral intra-articularly injected into right hind knee joint in a volume of 50 μl as previously described (Chandran et al., 2009). Compressive grip force (CGF) was determined 20 days following MIA injection by recording the maximum compressive force exerted on the hind limb strain gauge setup, using a commercially available grip force measurement system (Columbus Instruments, Columbus, Ohio). In this assay, each rat was gently restrained and the hind paw was allowed to grasp the wire mesh frame (10×12 cm) attached to the strain gauge. The animal was then moved in a rostral-to-caudal direction until the grip was broken, and CGF reading expressed as g was recorded. Each rat was sequentially tested twice at approximately 2-3 min intervals to obtain an average raw CGF. To avoid confounding factor of body weight, CGF was converted into CGFbody following the formula: g (CGF)÷kg (body weight). CGF was assessed 30 min following i.p. compound administration. The vehicle control group was taken as 0%, whereas the age-matched naïve group was described as 100% (normal), the analgesic efficacy was expressed as the percentage return of CGFbody to normalcy vs. the naïve group: [(treatment-vehicle)/(naïve-vehicle)]×100%. Experiments were performed in animals 20 days following MIA knee joint injection, since this is the time point that maximal reduction of grip force observed in the time-course experiment (Chandran et al., 2009).
# [2] = system: carrageenan-induced acute inflammatory thermal hyperalgesia; assay: Carrageenan model of acute inflammatory thermal hyperalgesia; conditions: for increase of the PWLcontra: vs vehicle
# Experimental: Acute inflammatory thermal hyperalgesia were induced by injecting 100 μl of a 1% solution of λ-carrageenan (Sigma Chemical Co., St. Louis, Mo.) in physiological saline into the plantar surface of the right hind paw. Thermal hyperalgesia measured as paw withdrawal latency (PWL) was determined, using a commercially available thermal paw stimulator (UARDG, University of California, San Diego, Calif.) as described by Hargreaves et al. (Hargreaves et al., 1988). Rats were placed into individual plastic cubicles mounted on a glass surface maintained at 30° C., where a thermal stimulus, in the form of radiant heat emitted from a focused projection bulb, was then applied to the plantar surface of each hind paw. The stimulus current was maintained at 4.50±0.05 amp, and the maximum time of exposure was set at 20.48 s to limit possible tissue damage. The elapsed time until a brisk withdrawal of the hind paw from the thermal stimulus was recorded automatically using photodiode motion sensors. The right (carrageenan injected paw) and left hind paw of each rat was tested in 3 sequential trials at approximately 5 min intervals. Carrageenan-induced thermal hyperalgesia of paw withdrawal latency (PWLcarra) was calculated as the mean of the two shortest latencies. PWL was assessed 30 min (2 h after carrageenan injection) following i.p. compound administration. PWLcarra of the vehicle control group was taken as 0%, whereas the PWL of the contralateral side (PWLcontra) of the vehicle control group was taken as 100%, the analgesic efficacy was expressed as the percentage return of PWLcarra to PWLcontra.
# [3] = system: nerve injury induced mechanical allodynia; assay: Chung model of neuropathic pain (L5-L6 spinal nerve ligation, tactile allodynia, von Frey)
# Experimental: To assess whether α4β2 PAM can increase antinociceptive responses of agonists in vivo, the following study was conducted. The materials and methods used to accomplish the study follow.
# Male Sprague-Dawley rats (Charles River, Wilmington, Mass.) weighing 120-150 grams at time of surgery were utilized. These animals were group housed in AAALAC approved facilities at Abbott Laboratories in a temperature-regulated environment with lights on between 0700 and 2000 hours. Food and water was available ad libitum except during testing. All animal handling and experimental protocols were approved by an institutional animal care and use committee (IACUC). All experiments were performed during the light cycle.
# 5[(2R)-Azetidin-2-ylmethoxy]-2-chloropyridine (Compound A, 1-100 nmol/kg) and 3-(3-pyridin-3-yl)-1,2,4-oxadiazol-5-yl)benzonitrile (α4β2 PAM Compound 1, 1-35 μmol/kg, i.p.) was used. Compound A and D was prepared in saline and injected in solution in a volume of 2 ml/kg body weight 30 minutes before behavioral evaluation. Compound 1,3-(3-(pyridin-3-yl)-1,2,4-oxadiazol-5-yl)benzonitrile, was prepared in 30% hydroxybetacyclodextrin and injected in solution in a volume of 4 ml/kg body weight immediately before Compound A. For studies with Compound D, the doses tested ranged from 0.3-30 μmol/kg i.p.
# To produce neuropathic pain, tight ligation of the L5-L6 spinal nerves was performed. As previously described in detail by Kim and Chung (Kim S H and Chung J M (1992), Pain 50: 355), following sterilization procedures, a 1.5 cm incision was made dorsal to the lumbosacral plexus. The paraspinal muscles (left side) were separated from the spinous processes, the L5 and L6 spinal nerves isolated, and tightly ligated with 3-0 silk thread. Following hemostasis, the wound was sutured and coated with antibiotic ointment. The rats were allowed to recover and then placed in a cage with soft bedding for 7-14 days before behavioral testing for mechanical allodynia.
# Tactile allodynia was measured using calibrated (force; g) von Frey filaments (Stoelting, Wood Dale, Ill.). Briefly, rats were placed into individual plexiglass containers and allowed to acclimate for 15-20 minutes before testing. Withdrawal threshold was determined by increasing and decreasing stimulus intensity and estimated using a Dixon non-parametric test (Chaplan et al., 1994; Chaplan S R, Bach F W, Pogrel J W, Chung J M and Yaksh T L (1994) J Neurosci Methods 53:55-63). Only rats with threshold scores<4.5 g were considered allodynic and utilized in further testing. A percent of maximal possible effect (% M.P.E.) of the tested compounds was calculated according to the formula: ([post-drug threshold]-[baseline threshold])/([maximum threshold]-[baseline threshold])×100%, where maximum threshold was equal to 15 g.
# Analysis of the in vivo data was carried out using analysis of variance. Where appropriate, Bonferroni's Multiple Comparison Test was used for post-hoc analysis. The level of significance was set at p less than 0.05. Data are presented as mean±S.E.M.
# [4] = Compound A 10 nmol/kg combined with Compound 1 (3.5 μmol/kg)
# [5] = co-administration of Compound 1
smiles,measurement,setting,value
"Clc1ccc(OC[C@H]2CCN2)cn1 [Compound A, 5-[(2R)-azetidin-2-ylmethoxy]-2-chloropyridine]",percent return of grip force to normalcy,[1]; Compound A 0.3 nmol/kg combined with Compound 1 (3.5 μmol/kg),29±2%
same,CGFbody,[1]; Compound A 0.3 nmol/kg/kg in the presence of Compound 1 (3.5 μmol/kg),657 ± 21 g
same,percent return of grip force to normalcy,[1]; Compound A 1 nmol/kg combined with Compound 1 (3.5 μmol/kg),50±3%
same,CGFbody,[1]; Compound A 1 nmol/kg/kg in the presence of Compound 1 (3.5 μmol/kg),855 ± 28 g
same,percent return of grip force to normalcy,[1]; Compound A 3 nmol/kg combined with Compound 1 (3.5 μmol/kg),66±5%
same,CGFbody,[1]; Compound A 3 nmol/kg/kg in the presence of Compound 1 (3.5 μmol/kg),971 ± 35 g
same,percent return of grip force to normalcy,[1]; [4],92±6%
same,CGFbody,[1]; Compound A 10 nmol/kg/kg in the presence of Compound 1 (3.5 μmol/kg),1243 ± 56 g
same,CGFbody,"[1]; Compound A alone, 1 nmol/kg",575 ± 37 g
same,percent return of grip force to normalcy,"[1]; Compound A alone, 1 nmol/kg",20±4%
same,CGFbody,"[1]; Compound A alone, 3 nmol/kg",717 ± 64 g
same,percent return of grip force to normalcy,"[1]; Compound A alone, 3 nmol/kg",35±6%
same,CGFbody,"[1]; Compound A alone, 10 nmol/kg",992 ± 45 g
same,percent return of grip force to normalcy,"[1]; Compound A alone, 10 nmol/kg",65±5%
same,CGFbody,"[1]; Compound A alone, 30 nmol/kg",1234 ± 37 g
same,percent return of grip force to normalcy,"[1]; Compound A alone, 30 nmol/kg",90±4%
same,ED50,"[1]; Rattus norvegicus, Compound A alone, read-out: ED50 (return of grip force to normalcy)",0.0046 µmol/kg
same,leftward shift in the DRC of Compound A,[1]; [5],5 fold
same,percent reversal of thermal hyperalgesia,[2]; [4],31±13%
same,PWLcarra,[2]; Compound A 10 nmol/kg i.p. in the presence of Compound 1 (3.5 μmol/kg),5.29 ± 0.91 s
same,percent reversal of thermal hyperalgesia,[2]; Compound A 30 nmol/kg combined with Compound 1 (3.5 μmol/kg),46±10%
same,PWLcarra,[2]; Compound A 30 nmol/kg i.p. in the presence of Compound 1 (3.5 μmol/kg),6.35 ± 0.71 s
same,percent reversal of thermal hyperalgesia,[2]; Compound A 100 nmol/kg combined with Compound 1 (3.5 μmol/kg),84±12%
same,PWLcarra,[2]; Compound A 100 nmol/kg i.p. in the presence of Compound 1 (3.5 μmol/kg),8.94 ± 0.79 s
same,percent reversal of thermal hyperalgesia,"[2]; Compound A alone, 100 nmol/kg",28±5%
same,PWLcarra,"[2]; Compound A alone, 100 nmol/kg i.p.",5.46 ± 0.36 s
same,percent reversal of thermal hyperalgesia,"[2]; Compound A alone, 300 nmol/kg",74±9%
same,PWLcarra,"[2]; Compound A alone, 300 nmol/kg i.p.",8.80 ± 0.65 s
same,increase of the PWLcontra,[2]; Compound A and Compound 1 co-administered animals,not statistically significant
same,increase of the PWLcontra,[2]; Compound A treated animals,not statistically significant
same,ED50,"[2]; Rattus norvegicus, Compound A alone, read-out: ED50 (reversal of thermal hyperalgesia)",0.16 µmol/kg
same,leftward shift in the DRC of Compound A,[2]; [5],5 fold
same,efficacy in neuropathic pain,[3]; Compound A 1 nmol/kg alone,ineffective
same,efficacy in neuropathic pain,[3]; Compound A 1 nmol/kg combined with varying doses of Compound 1,dose-dependent increase in efficacy
same,mechanical paw withdrawal threshold (PWT),[3]; Compound A co-administered with Compound 1 (PAM),12.1 ± 0.5 g
"N#Cc1cccc(-c2nc(-c3cccnc3)no2)c1 [Example 1, 3-(3-(pyridin-3-yl)-1,2,4-oxadiazol-5-yl)benzonitrile]",return of grip force normalcy,"[1]; Compound 1 alone, 3.5 μmol/kg i.p.",produced no return of grip force normalcy
same,alteration of PWLcarra,"[2]; Compound 1 alone, up to 35 μmmol/kg, i.p.",produced no alteration of PWLcarra
same,effect on the dose response curve of Compound A,[3]; Compound 1 3.5 μmol/kg with various doses of Compound A,left-shifting the dose response curve of Compound A
same,efficacy in neuropathic pain,[3]; administered alone,ineffective
